How the values were obtained:
[1] = test system: Puccinia recondita (PUCCRT); assay: Field assessment of brown rust of wheat (PUCCRT), 2 field trials; type: in vivo, Puccinia recondita on wheat (TRZAW); details: relative AUDPC, average of 2 field trials, with Agnique BP-420
From the text: (§1) Treatments consisted of the compound of Formula I and the compound of Formula II either using individually or as a two-way mixture with the compound of Formula I. The compound of Formula I was applied with Agnique BP-420 (50% w/w at 0.3% v/v) at 75 and 150 g ai/ha and the compound of Formula II was applied with Agnique BP-420 (50% w/w at 0.3% v/v) at 20, 40, and 60 g ai/ha. Commercial standards used in the studies were Fluxapyroxad (Imtrex), applied at 100 g ai/ha, and Metconazole+Fluxapyroxad (Librax), applied at 161 g ai/ha.
Field Assessment of Puccinia recondita (PUCCRT) in Wheat:
Fungicidal treatment containing the compound of Formula I and the compound of Formula II, either individually or as a two mixture, were assessed against brown rust of wheat (PUCCRT) in two separate field trials. In the first trial, fungicidal treatments were applied at B37-39 (protectant, approximately 0% infection at application) growth stage of wheat (TRZAW, MV Vanek variety) under natural infection of brown rust. The treatment was part of an experimental trial designed as a randomized complete block with four replications and a plot of approximately 2×3 m. Fungicidal treatments were applied at a water volume of 200 L/ha, using a backpack plot sprayer with a TEEJET QJ90-2XTT110 015 Nozzle.
In the second trial, fungicidal treatments containing the compound of Formula I and the compound of Formula II, either individually or as a two way mixture, were applied at B33 (curative, approximately 6.6% infection at application) growth stage of wheat (TRZAW, Miradoux variety) under natural infection of brown rust. The treatments were part of an experimental trial designed as a randomized complete block with four replications and a plot of approximately 2×3 m. Fungicidal treatments were applied at a water volume of 200 L/ha, using a backpack plot sprayer with a HARDI MD110-02 Nozzle.
(§2) Disease severity (percentage of visual diseased foliage on whole plot or leaves) in both field trials was assessed at 5 weeks after application and was recorded following EPPO PP1/26 guideline prescriptions. Area under the disease progress curve (AUDPC) was calculated for each plot in both trials using the sets of recorded severity data. Relative AUDPC (% control based on AUDPC) was calculated as percent of the nontreated control. Final results for the control of brown rust of wheat by the compound of Formula I, the compound of Formula II, and mixtures are reported as an average of the relative AUDPC calculated over both field trials. Statistical analysis was done according to ANOVA and Tukey's test (p=0.10).

[2] = test system: Puccinia striiformis (PUCCST); assay: Field assessment of yellow rust of wheat (PUCCST), 2 field trials; type: in vivo, Puccinia striiformis on wheat (TRZAW); details: relative AUDPC, average of 2 field trials, with Agnique BP-420
From the text: as §1
Field Assessment of Puccinia striiformis (PUCCST) in Wheat:
Fungicidal treatments containing the compound of Formula I and the compound of Formula II, either individually or as a two way mixture, were assessed against yellow rust of wheat (PUCCST) in two separate field trials. In the first trial, fungicidal treatments were applied twice at B31-32 (early curative, 4% infection at application on L3) and B39 (16.3% infection at application on L3) growth stages of winter wheat (TRZAW, Fairplay variety) under naturally occurring infection with PUCCST. The treatments were part of an experimental trial designed as a randomized complete block with four replications and a plot of approximately 1×6 m. Treatments were applied at water volume of 200 L/ha, using a backpack plot sprayer (BKPCKENG, F110-015 Hardi (3) Flat fan nozzle) and pressurized at 200 kPa.
In the second trial, fungicidal treatments containing the compound of Formula I and the compound of Formula II, either individually or as a two way mixture, were applied twice at B32 (protectant, 0% infection on L3 at application) and B37 (early curative, 20% infection on L3 at application) growth stages of wheat (TRZAW, Torch variety) under naturally occurring infection with PUCCST. The treatment was part of an experimental trial designed as a randomized complete block with four replications and a plot of approximately 2×4 m. Treatments were applied at water volume of 200 L/ha, using a backpack precision plot sprayer (BKCKAIR, F110-03 Hypro (4) Flat fan nozzle) and pressurized at 210 kPa.
as §2, with “4-7” for “5”, “yellow” for “brown”

[3] = test system: Zymoseptoria tritici (SEPTTR); assay: Field assessment of leaf blotch of wheat (SEPTTR), 3 field trials; type: in vivo, Zymoseptoria tritici on winter wheat (TRZAW); details: relative AUDPC, average of 3 field trials, with Agnique BP-420
From the text: as §1
Field Assessment of Zymoseptoria tritici (SEPTTR) in Wheat:
Fungicidal treatments containing the compound of Formula I and the compound of Formula II, either individually or as a two way mixture, were assessed against leaf spot of wheat (SEPTTR) in three separate field trials. In the first trial, fungicidal treatments were applied at B37 (curative, 1.8% infection at application on L4) growth stage of winter wheat (TRZAW, Sy moisson variety) under naturally occurring infection with SEPTTR. The treatments were part of an experimental trial designed as a randomized complete block with four replications and a plot of approximately 2×4 m. Treatments were applied at water volume of 200 L/ha, using a backpack plot sprayer (BKPCKAIR, FLAT FAN nozzle) and pressurized at 250 kPa.
In the second trial, fungicidal treatments were applied twice at B32 (curative, 15% infection at application on L5) and B39 (16% infection at application on L4) growth stages of winter wheat (TRZAW, Riband variety) under naturally occurring infection with SEPTTR. The treatments were part of an experimental trial designed as a randomized complete block with four replications and a plot of approximately 1.5×2 m. Treatments were applied at water volume of 200 L/ha, using a backpack plot sprayer (BKPCKAIR, Flat fan nozzle) and pressurized at 180 kPa.
In the final trial, fungicidal treatments were applied twice at B32 (protective, 15% infection at application on L6) and B37 (12% infection at application on L5) growth stages of winter wheat (TRZAW, Smaragd variety) under naturally occurring infection with SEPTTR. […]
as §2, with “at 7-9” for “at 5”, “of leaf spot” for “of brown rust”, “over all three” for “over both”, “trials. […]” for “trials. Statistical analysis was done according to ANOVA and Tukey's test (p=0.10).”

SMILES: N#Cc1ccc(Oc2ccc(C(F)(F)C(O)(Cn3nc[nH]c3=S)c3ccc(F)cc3F)nc2)cc1 (stereo not drawn) [Compound I, 4-((6-(2-(2,4-difluorophenyl)-1,1-difluoro-2-hydroxy-3-(5-thioxo-4,5-dihydro-1H-1,2,4-triazol-1-yl)propyl)pyridin-3-yl)oxy)benzonitrile]
- PUCCRT % Control ([1]; 75 g ai/ha): 79.7%
- PUCCRT % Control ([1]; 150 g ai/ha): 89.0%
- PUCCST % Control ([2]; 75 g ai/ha): 83.4%
- PUCCST % Control ([2]; 150 g ai/ha): 87.7%
- SEPTTR % Control ([3]; 75 g ai/ha): 50.3%
- SEPTTR % Control ([3]; 150 g ai/ha): 73.8%

SMILES: COc1ccnc(C(=O)N[C@@H](C)C(=O)O[C@@H](C)C(c2ccc(F)cc2)c2ccc(F)cc2)c1OC(C)=O [Compound II, (S)-1,1-bis(4-fluorophenyl)propan-2-yl (3-acetoxy-4-methoxypicolinoyl)-L-alaninate]
- PUCCRT % Control ([1]; 20 g ai/ha): 45.4%
- PUCCRT % Control ([1]; 40 g ai/ha): 64.7%
- PUCCST % Control ([2]; 40 g ai/ha): 50.6%
- PUCCST % Control ([2]; 60 g ai/ha): 56.2%
- SEPTTR % Control ([3]; 20 g ai/ha): 35.1%
- SEPTTR % Control ([3]; 40 g ai/ha): 52.2%
